Experimental data reported in patent US20260297081A1, “COMPOUNDS AND METHODS OF TREATING CANCERS” (Cullgen Inc., priority 2023, published 2026).

Columns and labels:
Assay type in all cases: cell-based
MCF7 cells = experiment: Anti-proliferation (viability) of MCF7 cells (Table 7, FIG. 2B); conditions: Homo sapiens, MCF7, MCF7 cells, 3-6 days, 10-point serial dilution; read-out: GI IC50 in MCF-7
CDK4 [1] = target: T1, CDK4 (Homo sapiens, UniProt P11802+Q16531); experiment: HiBiT detection of HiBiT-tagged CDK4 protein level in MCF7 cells, 16 hours (Table 8); design: expressed in transfected cells; host or cells: MCF7; conditions: MCF7 cells stably expressing HiBiT tagged target proteins; for activity at 0.01 µM: 10 nM, read-out: % CDK4 Relative Level (10 nM); for activity at 0.1 µM: 100 nM, read-out: % CDK4 Relative Level (100 nM)
Description: HiBiT detection system quantitatively measures total amounts of HiBiT-tagged proteins using a luminescent based method. MCF7 cells stably expressing HiBiT tagged target proteins were treated with heterobifunctional compounds at indicated concentrations for 16 hours, then lysed with Nano-Glo HiBiT Lytic detection reagents.
Target sequence in this assay (P11802 whole entry): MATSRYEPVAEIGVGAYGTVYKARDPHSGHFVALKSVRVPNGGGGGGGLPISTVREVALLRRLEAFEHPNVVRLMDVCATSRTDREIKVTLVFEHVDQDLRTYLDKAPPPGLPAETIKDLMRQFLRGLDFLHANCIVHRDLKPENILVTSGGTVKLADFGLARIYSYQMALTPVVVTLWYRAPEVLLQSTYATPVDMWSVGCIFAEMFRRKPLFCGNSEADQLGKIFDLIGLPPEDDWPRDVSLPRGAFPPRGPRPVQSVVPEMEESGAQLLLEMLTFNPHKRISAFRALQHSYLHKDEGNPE
Target sequence in this assay (P24385 whole entry partner): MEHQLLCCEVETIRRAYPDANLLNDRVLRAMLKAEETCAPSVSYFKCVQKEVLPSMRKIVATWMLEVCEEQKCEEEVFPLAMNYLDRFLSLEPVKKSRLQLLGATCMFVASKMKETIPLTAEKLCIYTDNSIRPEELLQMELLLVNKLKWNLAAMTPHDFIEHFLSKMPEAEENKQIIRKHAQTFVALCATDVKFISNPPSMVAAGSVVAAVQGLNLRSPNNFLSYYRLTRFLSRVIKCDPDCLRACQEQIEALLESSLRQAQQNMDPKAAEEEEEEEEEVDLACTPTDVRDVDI
Target sequence in this assay (Q16531 2-1140 limits assumed): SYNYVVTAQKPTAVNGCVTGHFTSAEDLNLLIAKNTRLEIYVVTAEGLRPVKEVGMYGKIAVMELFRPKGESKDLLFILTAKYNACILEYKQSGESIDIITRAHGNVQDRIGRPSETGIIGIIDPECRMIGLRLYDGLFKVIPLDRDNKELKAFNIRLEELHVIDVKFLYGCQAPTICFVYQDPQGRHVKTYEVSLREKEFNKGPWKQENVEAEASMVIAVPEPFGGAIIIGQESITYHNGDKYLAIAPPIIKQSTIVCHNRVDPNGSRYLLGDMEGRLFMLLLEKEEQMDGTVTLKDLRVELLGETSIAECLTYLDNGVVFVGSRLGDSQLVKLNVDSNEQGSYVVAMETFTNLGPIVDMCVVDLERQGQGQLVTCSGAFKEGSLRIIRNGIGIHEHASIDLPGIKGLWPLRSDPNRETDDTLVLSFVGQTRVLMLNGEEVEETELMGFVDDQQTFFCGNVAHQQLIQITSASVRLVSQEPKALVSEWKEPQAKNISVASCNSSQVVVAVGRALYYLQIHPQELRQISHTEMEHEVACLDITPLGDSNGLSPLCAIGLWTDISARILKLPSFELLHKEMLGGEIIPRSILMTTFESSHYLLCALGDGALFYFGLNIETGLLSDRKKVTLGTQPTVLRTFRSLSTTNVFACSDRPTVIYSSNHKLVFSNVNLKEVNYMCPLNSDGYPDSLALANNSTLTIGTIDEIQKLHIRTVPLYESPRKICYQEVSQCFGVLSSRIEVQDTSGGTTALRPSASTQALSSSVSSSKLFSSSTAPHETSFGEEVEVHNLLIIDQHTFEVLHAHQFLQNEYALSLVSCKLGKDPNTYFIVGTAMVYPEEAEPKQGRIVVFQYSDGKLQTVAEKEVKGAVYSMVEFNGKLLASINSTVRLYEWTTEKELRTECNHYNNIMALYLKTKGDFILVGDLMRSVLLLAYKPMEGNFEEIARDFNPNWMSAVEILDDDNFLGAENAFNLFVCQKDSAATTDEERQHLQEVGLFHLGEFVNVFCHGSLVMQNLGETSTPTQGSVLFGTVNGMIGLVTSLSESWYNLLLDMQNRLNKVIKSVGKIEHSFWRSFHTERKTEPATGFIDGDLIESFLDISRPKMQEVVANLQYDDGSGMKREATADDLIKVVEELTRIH

CDK4 [2] = target: T1, CDK4; experiment: CDK4 percentage degradation in Calu-1 cells (Table 6); design: Cells that express cyclin D1-3 and CDK4/6 proteins were treated with heterobifunctional compounds; endogenous in cells; host or cells: Calu-1; conditions: 16 hours; for inhibition at 0.04 µM: 40 nM; for inhibition at 0.2 µM: 200 nM
Method in brief: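 Calu-1 cells exposed to heterobifunctional compounds at 40 nM or 200 nM for 16 h. Cyclin D1 and CDK4 levels measured by Western blot of RIPA lysates (BCA-normalised loading), bands quantified by densitometry and expressed as percentage degradation.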
Target sequence in this assay (P11802 2-303 limits assumed): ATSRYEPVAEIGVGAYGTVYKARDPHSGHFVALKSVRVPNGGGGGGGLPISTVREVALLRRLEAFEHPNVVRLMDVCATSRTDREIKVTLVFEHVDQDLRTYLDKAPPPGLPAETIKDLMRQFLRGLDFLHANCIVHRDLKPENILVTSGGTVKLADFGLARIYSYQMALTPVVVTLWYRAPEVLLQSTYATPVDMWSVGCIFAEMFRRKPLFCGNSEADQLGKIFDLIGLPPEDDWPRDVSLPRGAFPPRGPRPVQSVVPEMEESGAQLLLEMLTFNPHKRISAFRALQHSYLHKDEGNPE
Target sequence in this assay (P24385 whole entry partner): as the sequence (P24385 whole entry partner) above
Target sequence in this assay (Q16531 2-1140 limits assumed): as the sequence (Q16531 2-1140 limits assumed) above

Row | Structure (SMILES) | IC50 (MCF7 cells) [nM] | activity at 0.01 µM (CDK4 [1]) [%] | activity at 0.1 µM (CDK4 [1]) [%] | inhibition at 0.04 µM (CDK4 [2]) [%] | inhibition at 0.2 µM (CDK4 [2]) [%]
1 | CC(=O)c1c(C)c2cnc(Nc3ccc(N4CCN(CCC(=O)N5CCC(Nc6nc(NC(C)C)ccc6C(=O)Nc6ccc(N(C)C)nn6)CC5)CC4)cn3)nc2n(C2CCCC2)c1=O [CPD-301, 2-((1-(3-(4-(6-((6-acetyl-8-cyclopentyl-5-methyl-7-oxo-7,8-dihydropyrido[2,3-d]pyrimidin-2-yl)amino)pyridin-3-yl)piperazin-1-yl)propanoyl)piperidin-4-yl)amino)-N-(6-(dimethylamino)pyridazin-3-yl)-6-(isopropylamino)nicotinamide] | < 50 | 55 to 85 | 55 to 85 | < 30 | < 30
2 | CC(=O)c1c(C)c2cnc(Nc3ccc(N4CCN(CCC(=O)N5CC6(CC(Nc7nc(NC(C)C)ccc7C(=O)Nc7cc(C)n(C)n7)C6)C5)CC4)cn3)nc2n(C2CCCC2)c1=O [CPD-302, 2-((2-(3-(4-(6-((6-acetyl-8-cyclopentyl-5-methyl-7-oxo-7,8-dihydropyrido[2,3-d]pyrimidin-2-yl)amino)pyridin-3-yl)piperazin-1-yl)propanoyl)-2-azaspiro[3.3]heptan-6-yl)amino)-N-(1,5-dimethyl-1H-pyrazol-3-yl)-6-(isopropylamino)nicotinamide] | < 50 | 55 to 85 | 55 to 85 | < 30 | < 30
3 | CC(=O)c1c(C)c2cnc(Nc3ccc(N4CCN(CCC(=O)N5CC6(CC(Nc7nc(NC(C)C)ccc7C(=O)Nc7ccc(N(C)C)nn7)C6)C5)CC4)cn3)nc2n(C2CCCC2)c1=O [CPD-305, 2-((2-(3-(4-(6-((6-acetyl-8-cyclopentyl-5-methyl-7-oxo-7,8-dihydropyrido[2,3-d]pyrimidin-2-yl)amino)pyridin-3-yl)piperazin-1-yl)propanoyl)-2-azaspiro[3.3]heptan-6-yl)amino)-N-(6-(dimethylamino)pyridazin-3-yl)-6-(isopropylamino)nicotinamide] | < 50 | 55 to 85 | 55 to 85 | 30 to 50 | 30 to 50
4 | CC(=O)c1c(C)c2cnc(Nc3ccc(N4CCN(CC5(C(=O)N6CC7(CC(Nc8nc(NC(C)C)ccc8C(=O)Nc8ccc(N(C)C)nn8)C7)C6)CC5)CC4)cn3)nc2n(C2CCCC2)c1=O [CPD-306, 2-((2-(1-((4-(6-((6-acetyl-8-cyclopentyl-5-methyl-7-oxo-7,8-dihydropyrido[2,3-d]pyrimidin-2-yl)amino)pyridin-3-yl)piperazin-1-yl)methyl)cyclopropane-1-carbonyl)-2-azaspiro[3.3]heptan-6-yl)amino)-N-(6-(dimethylamino)pyridazin-3-yl)-6-(isopropylamino)nicotinamide] | < 50 | 55 to 85 | 55 to 85 | 30 to 50 | 30 to 50
5 | CC(=O)c1c(C)c2cnc(Nc3ccc(N4CCN(C(C)CC(=O)N5CC6(CC(Nc7nc(NC(C)C)ccc7C(=O)Nc7cn(C)c(C8CC8)n7)C6)C5)CC4)cn3)nc2n(C2CCCC2)c1=O (stereo not drawn) [CPD-338, 2-((2-(3-(4-(6-((6-acetyl-8-cyclopentyl-5-methyl-7-oxo-7,8-dihydropyrido[2,3-d]pyrimidin-2-yl)amino)pyridin-3-yl)piperazin-1-yl)butanoyl)-2-azaspiro[3.3]heptan-6-yl)amino)-N-(2-cyclopropyl-1-methyl-1H-imidazol-4-yl)-6-(isopropylamino)nicotinamide] | < 50 | 55 to 85 | 55 to 85 | 30 to 50 | 30 to 50
6 | CC(=O)c1c(C)c2cnc(Nc3ccc(N4CCC(N(C)CC(=O)N5CCC(Nc6nc(NC(C)C)ccc6C(=O)Nc6ccc(N(C)C)nn6)CC5)CC4)cn3)nc2n(C2CCCC2)c1=O [CPD-360, 2-((1-(N-(1-(6-((6-acetyl-8-cyclopentyl-5-methyl-7-oxo-7,8-dihydropyrido[2,3-d]pyrimidin-2-yl)amino)pyridin-3-yl)piperidin-4-yl)-N-methylglycyl)piperidin-4-yl)amino)-N-(6-(dimethylamino)pyridazin-3-yl)-6-(isopropylamino)nicotinamide] | < 50 | 55 to 85 | 55 to 85 | < 30 | < 30
7 | CNc1ccc(C(=O)Nc2ccc(N(C)C)nn2)c(NCCCCCC(=O)N2CCN(c3ccc(Nc4ncc5cc6n(c5n4)C4(CCCCC4)CNC6=O)nc3)CC2)n1 [CPD-635, N-(6-(dimethylamino)pyridazin-3-yl)-6-(methylamino)-2-((6-oxo-6-(4-(6-((6′-oxo-7′,8′-dihydro-6′H-spiro[cyclohexane-1,9′-pyrazino[1′,2′:1,5]pyrrolo[2,3-d]pyrimidin]-2′-yl)amino)pyridin-3-yl)piperazin-1-yl)hexyl)amino)nicotinamide] | > 100 | 55 to 85 | 55 to 85 |  | 
8 | CNc1ccc(C(=O)Nc2ccc(N(C)C)nn2)c(NCCCCCCC(=O)N2CCN(c3ccc(Nc4ncc5cc6n(c5n4)C4(CCCCC4)CNC6=O)nc3)CC2)n1 [CPD-636, N-(6-(dimethylamino)pyridazin-3-yl)-6-(methylamino)-2-((7-oxo-7-(4-(6-((6′-oxo-7′,8′-dihydro-6′H-spiro[cyclohexane-1,9′-pyrazino[1′,2′:1,5]pyrrolo[2,3-d]pyrimidin]-2′-yl)amino)pyridin-3-yl)piperazin-1-yl)heptyl)amino)nicotinamide] | > 100 | 55 to 85 | 55 to 85 |  | 
9 | CNc1ccc(C(=O)Nc2ccc(N(C)C)nn2)c(NCCOCCOCCC(=O)N2CCN(c3ccc(Nc4ncc5cc6n(c5n4)C4(CCCCC4)CNC6=O)nc3)CC2)n1 [CPD-639, N-(6-(dimethylamino)pyridazin-3-yl)-6-(methylamino)-2-((2-(2-(3-oxo-3-(4-(6-((6′-oxo-7′,8′-dihydro-6′H-spiro[cyclohexane-1,9′-pyrazino[1′,2′:1,5]pyrrolo[2,3-d]pyrimidin]-2′-yl)amino)pyridin-3-yl)piperazin-1-yl)propoxy)ethoxy)ethyl)amino)nicotinamide] | > 100 | > 85 | > 85 |  | 

Now from value to compound:

Row | IC50 (MCF7 cells) [nM] | activity at 0.01 µM (CDK4 [1]) [%] | activity at 0.1 µM (CDK4 [1]) [%] | inhibition at 0.04 µM (CDK4 [2]) [%] | inhibition at 0.2 µM (CDK4 [2]) [%] | Structure (SMILES)
10 | > 100 | 55 to 85 | 55 to 85 |  |  | CNc1ccc(C(=O)Nc2ccc(N(C)C)nn2)c(NCCCCNC(=O)CN2CCN(c3ccc(Nc4ncc5cc6n(c5n4)C4(CCCCC4)CNC6=O)nc3)CC2)n1 [CPD-642, N-(6-(dimethylamino)pyridazin-3-yl)-6-(methylamino)-2-((4-(2-(4-(6-((6′-oxo-7′,8′-dihydro-6′H-spiro[cyclohexane-1,9′-pyrazino[1′,2′:1,5]pyrrolo[2,3-d]pyrimidin]-2′-yl)amino)pyridin-3-yl)piperazin-1-yl)acetamido)butyl)amino)nicotinamide]
11 | > 100 | > 85 | 55 to 85 |  |  | CNc1ccc(C(=O)Nc2ccc(N(C)C)nn2)c(NCCCCCNC(=O)CN2CCN(c3ccc(Nc4ncc5cc6n(c5n4)C4(CCCCC4)CNC6=O)nc3)CC2)n1 [CPD-643]
12 | > 100 | > 85 | > 85 |  |  | CNc1ccc(C(=O)Nc2ccc(N(C)C)nn2)c(NCCCCCCNC(=O)CN2CCN(c3ccc(Nc4ncc5cc6n(c5n4)C4(CCCCC4)CNC6=O)nc3)CC2)n1 [CPD-644, N-(6-(dimethylamino)pyridazin-3-yl)-6-(methylamino)-2-((6-(2-(4-(6-((6′-oxo-7′,8′-dihydro-6′H-spiro[cyclohexane-1,9′-pyrazino[1′,2′:1,5]pyrrolo[2,3-d]pyrimidin]-2′-yl)amino)pyridin-3-yl)piperazin-1-yl)acetamido)hexyl)amino)nicotinamide]
13 | > 100 | > 85 | > 85 |  |  | CNc1ccc(C(=O)Nc2ccc(N(C)C)nn2)c(NCCCCCCCNC(=O)CN2CCN(c3ccc(Nc4ncc5cc6n(c5n4)C4(CCCCC4)CNC6=O)nc3)CC2)n1 [CPD-645, N-(6-(dimethylamino)pyridazin-3-yl)-6-(methylamino)-2-((7-(2-(4-(6-((6′-oxo-7′,8′-dihydro-6′H-spiro[cyclohexane-1,9′-pyrazino[1′,2′:1,5]pyrrolo[2,3-d]pyrimidin]-2′-yl)amino)pyridin-3-yl)piperazin-1-yl)acetamido)heptyl)amino)nicotinamide]
14 | > 100 | > 85 | > 85 |  |  | CNc1ccc(C(=O)Nc2ccc(N(C)C)nn2)c(NCCCCCCCCNC(=O)CN2CCN(c3ccc(Nc4ncc5cc6n(c5n4)C4(CCCCC4)CNC6=O)nc3)CC2)n1 [CPD-646, N-(6-(dimethylamino)pyridazin-3-yl)-6-(methylamino)-2-((8-(2-(4-(6-((6′-oxo-7′,8′-dihydro-6′H-spiro[cyclohexane-1,9′-pyrazino[1′,2′:1,5]pyrrolo[2,3-d]pyrimidin]-2′-yl)amino)pyridin-3-yl)piperazin-1-yl)acetamido)octyl)amino)nicotinamide]
